Experimental data taken from patent US7704995B2 (Exelixis, Inc., priority 2003, dated 2010).

Biological target: T1, Chk1 (Homo sapiens, UniProt O14757)
T1 construct: purchased Upstate Biotechnology
T1 sequence (O14757 1-476): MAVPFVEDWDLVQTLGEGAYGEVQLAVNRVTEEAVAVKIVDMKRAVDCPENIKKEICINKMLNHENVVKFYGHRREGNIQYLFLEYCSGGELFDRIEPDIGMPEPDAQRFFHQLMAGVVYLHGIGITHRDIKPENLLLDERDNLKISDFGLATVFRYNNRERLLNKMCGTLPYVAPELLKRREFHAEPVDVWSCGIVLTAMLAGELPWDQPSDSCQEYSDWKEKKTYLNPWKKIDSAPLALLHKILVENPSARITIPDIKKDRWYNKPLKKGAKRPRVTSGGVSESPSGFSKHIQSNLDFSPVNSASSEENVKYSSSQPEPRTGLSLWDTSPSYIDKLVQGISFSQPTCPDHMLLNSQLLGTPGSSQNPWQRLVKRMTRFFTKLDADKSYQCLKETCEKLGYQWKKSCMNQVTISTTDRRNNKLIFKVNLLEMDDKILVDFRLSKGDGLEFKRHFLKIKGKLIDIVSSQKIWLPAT
Test: Chk1 kinase assay: incorporation of γ-33P ATP into immobilized myelin basic protein
Assay type: biochemical
Settings: Table 11; Chk1 only; read-out: Chk1 IC50
Procedure, shortened: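 MBP coated on plates (20 μg/ml) was phosphorylated by Chk1 (10 nM) or Chk2 (20 nM) with γ-33P ATP plus 10 μM (Chk1) or 30 μM (Chk2) unlabeled ATP, 1 h at room temperature, 1% DMSO. Bound radioactivity was counted by scintillation after washing; IC50 or Ki derived from fitted rate data.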

Structure (SMILES) | IC50 [µM]
CNC(=O)c1nc(-c2ccc3ccnc(N[C@H]4CCc5ccccc54)c3c2)cnc1N [Example 525, 3-amino-6-{1-[(1S)-2,3-dihydro-1H-inden-1-ylamino]isoquinolin-7-yl}-N-methylpyrazine-2-carboxamide] | 0.05 to 1
CNC(=O)c1nc(-c2ccc3c(c2)C(N[C@H]2CCc4ccccc42)CC3)cnc1N (stereo partly drawn) [Example 526, 3-amino-6-{3-[(1S)-2,3-dihydro-1H-inden-1-ylamino]-2,3-dihydro-1H-inden-5-yl}-N-methylpyrazine-2-carboxamide] | < 0.05
CNC(=O)c1nc(-c2cccc(CNC3CCc4cc(CCCO)ccc43)c2)cnc1N (stereo not drawn) [Example 527] | < 0.05
Nc1ncc(-c2cccc(CN[C@H]3CCc4ccccc43)c2)nc1-c1cnco1 [Example 528, 5-(3-{[(1S)-2,3-dihydro-1H-inden-1-ylamino]methyl}phenyl)-3-(1,3-oxazol-5-yl)pyrazin-2-amine] | 1 to 10
NNC(=O)c1nc(-c2cccc(CN[C@H]3CCc4ccccc43)c2)cnc1N [Example 529, 3-amino-6-(3-{[(1S)-2,3-dihydro-1H-inden-1-ylamino]methyl}phenyl)pyrazine-2-carbohydrazide] | 0.05 to 1
NC(=O)c1nc(-c2cccc(CN[C@H]3CCc4ccccc43)c2)cnc1N [Example 530, 3-amino-6-(3-{[(1S)-2,3-dihydro-1H-inden-1-ylamino]methyl}phenyl)pyrazine-2-carboxamide] | 0.05 to 1
CC(=O)c1nc(-c2cccc(CN[C@H]3CCc4ccccc43)c2)cnc1N [Example 531, 1-[3-amino-6-(3-{[(1S)-2,3-dihydro-1H-inden-1-ylamino]methyl}phenyl)pyrazin-2-yl]ethanone] | 0.05 to 1
Nc1ncc(-c2cccc(CNC3CCc4ccccc43)c2)nc1C(=O)NCc1ccc2ccccc2c1 (stereo not drawn) [Example 532, 3-amino-6-{3-[(2,3-dihydro-1H-inden-1-ylamino)methyl]phenyl}-N-(naphthalen-2-ylmethyl)pyrazine-2-carboxamide] | ≥ 10
Nc1ncc(-c2cccc(CNC3CCc4ccccc43)c2)nc1C(=O)NC1CCCCC1 (stereo not drawn) [Example 533, 3-amino-N-cyclohexyl-6-{3-[(2,3-dihydro-1H-inden-1-ylamino)methyl]phenyl}pyrazine-2-carboxamide] | 1 to 10
Nc1ncc(-c2cccc(CN[C@H]3CCc4ccccc43)c2)nc1C(=O)NCc1ccncc1 [Example 534, 3-amino-6-(3-{[(1S)-2,3-dihydro-1H-inden-1-ylamino]methyl}phenyl)-N-(pyridin-4-ylmethyl)pyrazine-2-carboxamide] | 1 to 10
Nc1ncc(-c2cccc(CO)c2)nc1-c1nnc[nH]1 [Example 535, {3-[5-amino-6-(4H-1,2,4-triazol-3-yl)pyrazin-2-yl]phenyl}methanol] | 1 to 10
Nc1ncc(-c2cccc(CN[C@H]3CCc4ccccc43)c2)nc1-c1nnc[nH]1 [Example 536, 5-(3-{[(1S)-2,3-dihydro-1H-inden-1-ylamino]methyl}phenyl)-3-(4H-1,2,4-triazol-3-yl)pyrazin-2-amine] | 0.05 to 1
Nc1ncc(-c2cccc(CN[C@H]3CCc4ccccc43)c2)nc1C(=O)NCC(F)(F)F [Example 537, 3-amino-6-(3-{[(1S)-2,3-dihydro-1H-inden-1-ylamino]methyl}phenyl)-N-(2,2,2-trifluoroethyl)pyrazine-2-carboxamide] | 1 to 10
Nc1ncc(-c2cccc(CN[C@H]3CCc4ccccc43)c2)nc1C(=O)NCCCCCO [Example 538, 3-amino-6-(3-{[(1S)-2,3-dihydro-1H-inden-1-ylamino]methyl}phenyl)-N-(5-hydroxypentyl)pyrazine-2-carboxamide] | 1 to 10
Nc1ncc(-c2cccc(CN[C@H]3CCc4ccccc43)c2)nc1C(=O)NCCCCO [Example 539, 3-amino-6-(3-{[(1S)-2,3-dihydro-1H-inden-1-ylamino]methyl}phenyl)-N-(4-hydroxybutyl)pyrazine-2-carboxamide] | 0.05 to 1

The remaining lines, values ahead:

IC50 [µM] | Structure (SMILES)
0.05 to 1 | Nc1ncc(-c2cccc(CN[C@H]3CCc4ccccc43)c2)nc1C(=O)NCCN1CCCC1 [Example 540, 3-amino-6-(3-{[(1S)-2,3-dihydro-1H-inden-1-ylamino]methyl}phenyl)-N-(2-pyrrolidin-1-ylethyl)pyrazine-2-carboxamide]
1 to 10 | Nc1ncc(-c2cccc(CN[C@H]3CCc4ccccc43)c2)nc1C(=O)NCCN1CCCCC1 [Example 541, 3-amino-6-(3-{[(1S)-2,3-dihydro-1H-inden-1-ylamino]methyl}phenyl)-N-(2-piperidin-1-ylethyl)pyrazine-2-carboxamide]
1 to 10 | Nc1ncc(-c2cccc(CN[C@H]3CCc4ccccc43)c2)nc1C(=O)NCCN1CCOCC1 [Example 542, 3-amino-6-(3-{[(1S)-2,3-dihydro-1H-inden-1-ylamino]methyl}phenyl)-N-(2-morpholin-4-ylethyl)pyrazine-2-carboxamide]
0.05 to 1 | Nc1ncc(-c2cccc(CN[C@H]3CCc4ccccc43)c2)nc1C(=O)NCC1CC1 [Example 543, 3-amino-N-(cyclopropylmethyl)-6-(3-{[(1S)-2,3-dihydro-1H-inden-1-ylamino}methyl}phenyl)pyrazine-2-carboxamide]
1 to 10 | Nc1ncc(-c2cccc(CN[C@H]3CCc4ccccc43)c2)nc1C(=O)NCc1ccccc1 [Example 544, 3-amino-6-(3-{[(1S)-2,3-dihydro-1H-inden-1-ylamino]methyl}phenyl)-N-(phenylmethyl)pyrazine-2-carboxamide]
1 to 10 | Nc1ncc(-c2cccc(CN[C@H]3CCc4ccccc43)c2)nc1C(=O)NCCc1ccccc1 [Example 545, 3-amino-6-(3-{[(1S)-2,3-dihydro-1H-inden-1-ylamino]methyl}phenyl)-N-(2-phenylethyl)pyrazine-2-carboxamide]
0.05 to 1 | Nc1ncc(-c2cccc(CN[C@H]3CCc4ccccc43)c2)nc1C(=O)c1ccccc1 [Example 546, [3-amino-6-(3-{[(1S)-2,3-dihydro-1H-inden-1-ylamino]methyl}phenyl)pyrazin-2-yl](phenyl)methanone]
0.05 to 1 | Nc1ncc(-c2cccc(CN[C@H]3CCc4ccccc43)c2)nc1C(=O)NCCO [Example 547, 3-amino-6-(3-{[(1S)-2,3-dihydro-1H-inden-1-ylamino]methyl}phenyl)-N-(2-hydroxyethyl)pyrazine-2-carboxamide]
0.05 to 1 | Nc1ncc(-c2cccc(CN[C@H]3CCc4ccccc43)c2)nc1C(=O)NC1CC1 [Example 548, 3-amino-N-cyclopropyl-6-(3-{[(1S)-2,3-dihydro-1H-inden-1-ylamino]methyl}phenyl)pyrazine-2-carboxamide]
1 to 10 | Nc1ncc(-c2cccc(CN[C@H]3CCc4ccccc43)c2)nc1C(=O)N1CCCC1 [Example 549, 5-(3-{[(1S)-2,3-dihydro-1H-inden-1-ylamino]methyl}phenyl)-3-(pyrrolidin-1-ylcarbonyl)pyrazin-2-amine]
1 to 10 | Cc1nnc(-c2nc(-c3cccc(CO)c3)cnc2N)[nH]1 [Example 550, {3-[5-amino-6-(5-methyl-4H-1,2,4-triazol-3-yl)pyrazin-2-yl]phenyl}methanol]
0.05 to 1 | Nc1ncc(-c2cccc(CO)c2)nc1-c1nnc(-c2ccccc2)[nH]1 [Example 551, {3-[5-amino-6-(5-phenyl-4H-1,2,4-triazol-3-yl)pyrazin-2-yl]phenyl}methanol]
1 to 10 | Nc1ncc(-c2cccc(CO)c2)nc1-c1nnc(Cc2ccccc2)[nH]1 [Example 552, (3-{5-amino-6-[5-(phenylmethyl)-4H-1,2,4-triazol-3-yl]pyrazin-2-yl}phenyl)methanol]
0.05 to 1 | CNNC(=O)c1nc(-c2cccc(CN[C@H]3CCc4ccccc43)c2)cnc1N [Example 553, 3-amino-6-(3-{[(1S)-2,3-dihydro-1H-inden-1-ylamino]methyl}phenyl)-N′-methylpyrazine-2-carbohydrazide]
0.05 to 1 | CN(C)C(=O)c1nc(-c2cccc(CN[C@H]3CCc4ccccc43)c2)cnc1N [Example 554, 3-amino-6-(3-{[(1S)-2,3-dihydro-1H-inden-1-ylamino]methyl}phenyl)-N,N-dimethylpyrazine-2-carboxamide]
0.05 to 1 | Nc1ncc(-c2cccc(CN[C@H]3CCc4ccccc43)c2)nc1-c1nnc(Cc2ccccc2)[nH]1 [Example 555, 5-(3-{[(1S)-2,3-dihydro-1H-inden-1-ylamino]methyl}phenyl)-3-[5-(phenylmethyl)-4H-1,2,4-triazol-3-yl]pyrazin-2-amine]
0.05 to 1 | CN(C)CCNC(=O)c1nc(-c2cccc(CN[C@H]3CCc4ccccc43)c2)cnc1N [Example 556, 3-amino-6-(3-{[(1S)-2,3-dihydro-1H-inden-1-ylamino]methyl}phenyl)-N-[2-(dimethylamino)ethyl]pyrazine-2-carboxamide]
< 0.05 | Nc1ncc(-c2cccc(CN[C@H]3CCc4ccccc43)c2)nc1-c1nc(-c2ccccc2)n[nH]1 [Example 557, 5-(3-{[(1S)-2,3-dihydro-1H-inden-1-ylamino]methyl}phenyl)-3-(3-phenyl-1H-1,2,4-triazol-5-yl)pyrazin-2-amine]
